# Results reported in publication PMC12523843, “Kuwanon A Targeted YWHAB in Hepatocellular Carcinoma Cells to Inhibit the Raf/MEK/ERK Signaling Pathway” (Cells, 2025).
# Columns and labels:
# [1] = test system: MHCC97 H cells injected into the liver; assay: Orthotopic hepatocellular carcinoma xenograft survival; assay type: in vivo, BALB/c-nu mice; settings: 30 mg/kg intraperitoneal, every two days, 45 days
# Description: Thirty-six female BALB/c-nu mice, four weeks old (supplied by Slike Jingda Laboratory Animal Co., Ltd., Changsha, China; Animal qualification number: SCXK-2019-0004), were housed in an SPF room. […] Therefore, female mice were selected for this study; 12 mice were used to establish the hepatocellular carcinoma xenografts. MHCC97 H cells (1 × 10^5 cells) were slowly injected into the left lobe of the mouse liver after being anesthetized with isoflurane. Three days later, the mice received intraperitoneal injections of KA (30 mg/kg) every two days for 45 days. Control mice were administered DMSO injections. Recorded the survival status of the animals. Prior to liver collection, the mice were anesthetized with isoflurane to minimize pain and euthanized by cervical dislocation. Ethics approval serial number: IACUC-20240613-03. Animal experiments were conducted in accordance with the Guide for the Care and Use of Laboratory Animals (Ministry of Science and Technology of China, 2006).
# [2] = test system: HCC cells (MHCC97 H and SMMC 7721); assay: Cell wound healing assay; assay type: cell-based, human; settings: 48 h, vs DMSO
# Protocol: We seeded the cells in 6-well plates and allowed them to adhere and grow to full confluence. Then, we gently scratched the cell monolayer in a straight line using a sterile pipette tip. We rinsed the wells with PBS to remove detached cells and debris. We captured bright-field images of the scratched area at baseline (0 h). We replaced the medium with DMEM containing KA or DMSO and continued incubation. We re-imaged the same wound areas at 24 h and 48 h post-scratch. We quantified cell migration by measuring wound closure (%) over time using image analysis software.
# [3] = Renal and liver function tests in treated mice; assay type: in vivo, BALB/c-nu mice; settings: KA-treated mice compared to DMSO controls
# [4] = test system: HCC cells (MHCC97 H and SMMC 7721); assay: Flow cytometry cell cycle analysis, result stated for HCC cells; assay type: cell-based, human; settings: 48 h
# Protocol: Cells were digested, centrifuged, and resuspended in PBS buffer following 48 h of treatment with either KA or DMSO. Prior to cell cycle analysis, the cells were fixed in 75% ethanol for a minimum of 24 h, followed by labeling with PI and RNase (Beyotime, Shanghai, China). Subsequently, the cells were analyzed using flow cytometry. Each group consisted of three replicates.
# [5] = test system: HCC cells (MHCC97 H and SMMC 7721); assay: EdU staining proliferation assay; assay type: cell-based, human
# Protocol: EdU staining was employed to assess cell proliferation following the manufacturer’s guidelines (Beyotime, Shanghai, China). A total of 2 × 10^4 cells, together with KA or DMSO, were seeded into 24-well plates and cultured for 48 h. Subsequently, the cells were incubated with […] EDU for 2 h, followed by fixation with 4% PFA for 15 min, permeabilization with 0.3% Triton X-100 for 10 min, and reaction with Click reaction cocktails for 30 min. Finally, the nuclei were stained with DAPI for 30 min at room temperature before microscopic examination.
# [6] = test system: MHCC97 H cells; assay: Transwell migration screen of selected compounds; assay type: cell-based, human; settings: compounds at an IC50 concentration
# Protocol: The Transwell assay measured the migration and invasion of cells by calculating the number of cells that passed through the material. Prior to the Transwell migration assay, cells were serum-starved in FBS-free culture medium for 24 h. The cells were then detached using trypsin, washed 1–2 times with PBS, and resuspended in DMEM. Approximately 50,000–100,000 cells were seeded into the upper chamber of the Transwell insert. The lower chamber was filled with 600 μL of complete medium containing the test compound. The Transwell system was incubated for 12 h under standard culture conditions (37 °C, 5% CO2). After incubation, the migrated cells on the lower membrane surface were fixed with 4% paraformaldehyde (PFA) and stained with 0.1% crystal violet. Non-migrated cells remaining in the upper chamber were carefully removed with a cotton swab. Finally, the stained cells were visualized under a microscope. If matrix gel was needed, it should be added according to the instructions (Beyotime, Shanghai, China) before the cells were seeded.
# [7] = molecular target: T1, Raf1 and YWHAB interaction (Homo sapiens, UniProt P31946); assay: Co-immunoprecipitation of MYC-YWHAB and FLAG-Raf 1 in HEK 293T; assay type: cell-based; settings: 25 μM and 30 μM, HEK 293T overexpressing MYC-YWHAB and FLAG-Raf 1
# T1 construct: host or cells: HEK 293T
# T1 sequence (P31946 1-246): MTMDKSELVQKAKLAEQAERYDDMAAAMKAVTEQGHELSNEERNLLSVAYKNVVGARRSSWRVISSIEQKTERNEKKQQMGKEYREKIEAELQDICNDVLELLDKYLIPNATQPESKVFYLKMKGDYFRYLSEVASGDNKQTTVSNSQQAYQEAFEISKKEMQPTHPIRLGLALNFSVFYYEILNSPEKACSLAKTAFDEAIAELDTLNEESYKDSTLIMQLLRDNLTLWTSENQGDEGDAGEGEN
# [8] = test system: HCC cells (MHCC97 H and SMMC 7721); assay: Colony formation assay; assay type: cell-based, human
# Protocol: Using a colony formation assay, the effect of KA on the colony-forming ability of HCC cells was evaluated. A total of 1000–2000 cells, along with KA, were seeded into each well of a six-well plate. During this period, fresh culture media and KA were replaced multiple times. After 2 to 3 weeks of incubation, the colonies were stained with crystal violet (Beyotime, Shanghai, China) and subsequently quantified in each well using ImageJ 1.52a software.
# [9] = molecular target: T2, YWHAB (Homo sapiens, UniProt P31946); assay: Epoxy-activated Sepharose 6B pull-down; assay type: binding; design: host or cells: HEK 293T; settings: KA immobilized on Sepharose 6B, HEK 293T overexpressing YWHAB
# T2 sequence (P31946 1-246): T1 sequence (P31946 1-246)
# Protocol: Epoxy-activated Sepharose 6B (Cytia, Washington, DC, USA) affinity media was used to bind KA molecules following the media’s absorbency swelling. The Sepharose 6B media was co-incubated with KA or DMSO and gently agitated overnight at room temperature. The product was then thoroughly washed through at least three cycles. Any remaining active groups were blocked using 1 M ethanolamine, incubated for 4 h at 37 °C. The 6B media, now bound with KA or DMSO, were further incubated with the cell lysate sample overnight, with gentle agitation at 4 °C. The media was washed again through a minimum of three cycles. A suitable amount of loading buffer was added, and the samples were heated in a 100 °C water bath for 15 min. The resulting supernatant was then ready for use in SDS-PAGE electrophoresis.
smiles,measurement,setting,value
"CC(C)=CCc1c(-c2ccc(O)c3c2OC(C)(C)C=C3)oc2cc(O)cc(O)c2c1=O [KA, Kuwanon A]",survival time,[1],significantly extended
same,wound healing (cell scratch assay),[2],significant reduction in wound healing
same,"renal and liver function tests (ALB, total protein, GOT/AST, GPT/ALT)",[3],no significant changes
same,cell cycle arrest (flow cytometry),[4]; concentration-dependent,significant G0/G1 phase arrest
same,G0/G1 phase arrest under YWHAB overexpression,"[4]; YWHAB-overexpressing cells, KA 15 μM",less KA-induced G0/G1 phase arrest
same,proportion of proliferating HCC cells (EdU),[5]; 48 h treatment,significant decrease in the proportion of proliferating HCC cells
same,proliferation inhibition by KA under YWHAB overexpression (EdU),"[5]; YWHAB-overexpressing HCC cells, KA 15 μM, 48 h",partly reversed the proliferation inhibition
same,migration of MHCC97 H (Transwell),[6],significantly inhibited the migration of MHCC97 H
same,amount of YWHAB interacting with Raf1 (co-immunoprecipitation),[7],reduction in the amount of YWHAB interacting with Raf1
same,in vitro colony formation ability under YWHAB overexpression,"[8]; YWHAB-overexpressing HCC cells, KA 15 μM",failed to inhibit the in vitro colony formation ability
same,colony formation ability,"[8]; indicated concentrations of KA, vs DMSO",significantly reduced colony formation ability
same,interaction with YWHAB (pull-down),[9],direct interaction
